Source: patent US20230190867A1, “METHODS OF TREATING NASH AND COMPOSITIONS THEREFORE” (BIOINCEPT, LLC, priority 2018, published 2023)

Experiments:
[1] = system: Kv flux; format: cell-based; parameters: Effectiveness: scale not given here; conditions: for Effectiveness / Kv flux 100% in nt (stimulus buffer only): conc. 0.625 uM; for K+ inhibition as compared with sPIF: dose comparison analysis
Method: Currently, effective immunomodulatory agents, with minimal side effects, that can regulate inflammation in the liver to promote liver health in the setting of chronic liver disease have not been developed and they are desperately needed. […] In addition, the effect of TxpIC on these cells were tested This is a potent chemical mimicking viarl infection in the liver.

[2] = system: Hepatitis C (HCV)-induced primary human hepatocytes (PHH); test: Inflammatory gene expression in HCV-induced primary human hepatocytes; format: cell-based
From the text: (§1) Methods Primary human hepatocytes (PHHs) and HepaRG™ cells were studied. The later are terminally differentiated hepatic cells derived from a human hepatic progenitor cell line that retains many characteristics of primary human hepatocytes were purchased from Thermo Fisher Scientific Inc. (MA, USA). PHHs were also obtained from Dr. David Geller, at the University of Pittsburgh, through the NIH funded Liver Tissue and Cell Distribution System (LTCDS) and maintained in Williams E Medium containing cell maintenance supplement reagents from Invitrogen (Carlsbad, Calif.). The HCV JFH strain was used in cell culture experiments at an M.O.I. of 0.5-1. […] In other experiments TxpIC at 500 ng/ml were added to the cells. This chemical replicates a viral induced inflammation and therefore it can be used in different cell types also when hepatitis C infection is difficult to induce. […] Li, K. (2012). Hepatology, 55: 666-675. For analysis of endogenous mRNA levels, total RNA was isolated from cells using the RNeasy RNA extraction kit (Qiagen, Valencia, Calif.) and cDNA synthesis was performed using 0.5 μg of total RNA (Transcriptor First Strand cDNA Synthesis Kit, Roche, Basel, Switzerland). Fluorescence real-time PCR analysis was preformed using an ABI 7500 instrument (Applied Biosystems, Foster City, Calif.) and TaqMan gene expression assay (Applied Biosystems). Relative amounts of mRNA, determined using a FAM-Labeled TaqMan Probe, were normalized to the 18S ribosomal RNA levels in each PCR reaction using the eukaryotic 18S rRNA endogenous control from ABI (VIC/MGB Probe, Primer Limited, Cat #4319413E). The delta 2(-Delta Delta C(T)) method was used for quantitation of relative mRNA levels and fold induction.

[3] = system: TxpIC-induced primary human hepatocytes (PHH); test: Inflammatory gene expression in TxpIC-induced primary human hepatocytes; format: cell-based; conditions: for Tx pIC induced CxCl10 expression: as compared with sPIF; for Tx pIC induced RSAD2: sPIF 200 nM
From the text: as §1

[4] = system: HepaRG cells induced by TxpIC; test: Inflammatory gene expression in TxpIC-induced HepaRG cells (real-time PCR); format: cell-based, human; conditions: TxpIC 500 ng/ml
From the text: Methods Primary human hepatocytes (PHHs) and HepaRG™ cells were studied. The later are terminally differentiated hepatic cells derived from a human hepatic progenitor cell line that retains many characteristics of primary human hepatocytes were purchased from Thermo Fisher Scientific Inc. (MA, USA). PHHs were also obtained from Dr. David Geller, at the University of Pittsburgh, through the NIH funded Liver Tissue and Cell Distribution System (LTCDS) and maintained in Williams E Medium containing cell maintenance supplement reagents from Invitrogen (Carlsbad, Calif.). The HCV JFH strain was used in cell culture experiments at an M.O.I. of 0.5-1. […] In other experiments TxpIC at 500 ng/ml were added to the cells. […] Fluorescence real-time PCR analysis was preformed using an ABI 7500 instrument (Applied Biosystems, Foster City, Calif.) and TaqMan gene expression assay (Applied Biosystems). Relative amounts of mRNA, determined using a FAM-Labeled TaqMan Probe, were normalized to the 18S ribosomal RNA levels in each PCR reaction using the eukaryotic 18S rRNA endogenous control from ABI (VIC/MGB Probe, Primer Limited, Cat #4319413E). The delta 2(-Delta Delta C(T)) method was used for quantitation of relative mRNA levels and fold induction.

Row | Sequence | Effectiveness [1] | Kv flux 100% in nt (stimulus buffer only) [1] [%] | also measured
1 | MVRIFPGSANKPSDD [PIF-pos2] | −17.02 | 117 | –
2 | MVRIIPGSANKPSDD [PIF-pos4] | −1.117 | 101.1 | –
3 | MVRIKPGSANKPSFD [PIF-pos10] | 53.72 | 46.28 | HCV induced CXCL10 expression [2]: inhibit; HCV induced IL28 expression [2]: Inhibitory effect; INFa induced suppression of HCV [2]: potentiate; 500 ng/ml TpxIC induced CCL5 [3]: Inhibitory effect; Tx pIC induced CxCl10 expression [3]: inhibit; Tx pIC induced RSAD2 [3]: inhibit; K+ inhibition as compared with sPIF [1]: increased K+ inhibition as compared with sPIF; effect on RSAD2 compared with sPIF [4]: similar; suppression of CxCL10, IL28, CCL5 compared with sPIF ([4]; time dependent): more pronounced suppression than sPIF
4 | MVRIKPGSANKWSDD [PIF-pos9] | 34.09 | 65.91 | –
5 | MVRIKPGSANWPSDD [PIF-pos8] | 45.79 | 54.21 | –
6 | MVRIKPGSWNKPSDD [PIF-pos7] | −22.27 | 122.3 | –
7 | MVRIKPWSANKPSDD [PIF-pos6] | −20.45 | 120.5 | –
8 | MVRIKPYSANKPSDD [PIF-pos5] | 22.81 | 77.19 | –
9 | MVRIWPGSANKPSDD [PIF-pos1] | 47.8 | 52.2 | –
10 | MVRIYPGSANKPSDD [PIF-pos3] | 52.05 | 47.95 | HCV induced CXCL10 expression [2]: inhibit; INFa induced suppression of HCV [2]: potentiate; 500 ng/ml TpxIC induced CCL5 [3]: Inhibitory effect; Tx pIC induced CxCl10 expression [3]: inhibit; Tx pIC induced RSAD2 [3]: inhibit; K+ inhibition as compared with sPIF [1]: increased K+ inhibition as compared with sPIF
